Key:
[1] = molecular target: human FPR1 receptors (Homo sapiens (Human), UniProt P21462); experiment: FPR1 cyclic adenosine monophosphate (cAMP) assay; format: cell-based; details: CHO cells overexpressing human FPR1; forskolin 10 μM, IBMX 200 μM; inhibition of cAMP production; read-out: hFPR1 cAMP EC50
Procedure: (§1) FPR2 and FPR1 Cyclic Adenosine Monophosphate (cAMP) Assays. A mixture of forskolin (5 μM final for FPR2 or 10 μM final for FPR1) and IBMX (200 μM final) were added to 384-well Proxiplates (Perkin-Elmer) pre-dotted with test compounds in DMSO (1% final) at final concentrations in the range of 1.7 nM to 100 μM. Chinese Hamster Ovary cells (CHO) overexpressing human FPR1 or human FPR2 receptors were cultured in F-12 (Ham's) medium supplemented with 10% qualified FBS, 250 μg/ml zeocin and 300 μg/ml hygromycin (Life Technologies). Reactions were initiated by adding 2,000 human FPR2 cells per well or 4,000 human FPR1 cells per well in Dulbecco's PBS (with calcium and magnesium) (Life Technologies) supplemented with 0.1% BSA (Perkin-Elmer). The reaction mixtures were incubated for 30 min at room temperature. The level of intracellular cAMP was determined using the HTRF HiRange cAMP assay reagent kit (Cisbio) according to manufacturer's instruction. Solutions of cryptate conjugated anti-cAMP and d2 flurorophore-labelled cAMP were made in a supplied lysis buffer separately. Upon completion of the reaction, the cells were lysed with equal volume of the d2-cAMP solution and anti-cAMP solution. After a 1-h room temperature incubation, time-resolved fluorescence intensity was measured using the Envision (Perkin-Elmer) at 400 nm excitation and dual emission at 590 nm and 665 nm. A calibration curve was constructed with an external cAMP standard at concentrations ranging from 1 μM to 0.1 pM by plotting the fluorescent intensity ratio from 665 nm emission to the intensity from the 590 nm emission against cAMP concentrations. The potency and activity of a compound to inhibit cAMP production was then determined by fitting to a 4-parametric logistic equation from a plot of cAMP level versus compound concentrations.

[2] = molecular target: human FPR2 receptors (Homo sapiens (Human), UniProt P25090); experiment: FPR2 cyclic adenosine monophosphate (cAMP) assay; format: cell-based; details: CHO cells overexpressing human FPR2; forskolin 5 μM, IBMX 200 μM; inhibition of cAMP production; read-out: hFPR2 cAMP2 EC50
Procedure: as §1

Chain of human FPR1 receptors (P21462 whole entry): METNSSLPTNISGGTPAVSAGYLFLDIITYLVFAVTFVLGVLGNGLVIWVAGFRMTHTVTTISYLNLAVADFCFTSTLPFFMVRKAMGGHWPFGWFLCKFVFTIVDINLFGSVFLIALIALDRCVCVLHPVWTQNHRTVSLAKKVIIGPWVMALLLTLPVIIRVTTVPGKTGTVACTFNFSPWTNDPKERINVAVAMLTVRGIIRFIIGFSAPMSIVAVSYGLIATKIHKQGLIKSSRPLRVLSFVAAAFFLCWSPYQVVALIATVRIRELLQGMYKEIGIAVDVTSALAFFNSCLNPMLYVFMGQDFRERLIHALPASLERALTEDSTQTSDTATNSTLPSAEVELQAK
Chain of human FPR2 receptors (P25090 whole entry): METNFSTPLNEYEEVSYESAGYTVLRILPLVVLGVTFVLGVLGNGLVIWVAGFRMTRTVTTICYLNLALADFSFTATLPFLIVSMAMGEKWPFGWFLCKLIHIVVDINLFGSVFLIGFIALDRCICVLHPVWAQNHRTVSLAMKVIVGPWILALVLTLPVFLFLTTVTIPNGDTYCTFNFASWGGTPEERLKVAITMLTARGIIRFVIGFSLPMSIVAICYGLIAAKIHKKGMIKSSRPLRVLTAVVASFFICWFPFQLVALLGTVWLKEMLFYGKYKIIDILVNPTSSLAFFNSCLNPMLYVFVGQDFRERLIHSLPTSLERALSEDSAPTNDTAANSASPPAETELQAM

| Compound | EC50 [1] [nM] | EC50 [2] [nM] |
| --- | --- | --- |
| CS(=O)(=O)NCC1(c2ccc(N3CCC[C@@H](NC(=O)Nc4cnc(Cl)cn4)C3=O)cc2)CCC1 [Example 6] | 100 | 0.7 |
| CS(=O)(=O)NCC1(c2ccc(N3CCC[C@H](NC(=O)Nc4ncc(Cl)cc4F)C3=O)cc2)CC1 [Example 41] | 7600 | 980 |
| CS(=O)(=O)NCC1(c2ccc(N3CCC[C@@H](NC(=O)Nc4ccc(C(F)(F)F)cc4)C3=O)cc2F)CC1 [Example 18] | 2 | 0.17 |

Next, values leading:

| EC50 [1] [nM] | EC50 [2] [nM] | Compound |
| --- | --- | --- |
| 33 | 0.21 | CS(=O)(=O)NCC1(c2ccc(N3CCC[C@@H](NC(=O)Nc4ccc(C(F)(F)F)cc4)C3=O)cc2)CC1 [Example 42] |
| 3400 | 1000 | O=C(Nc1ccc(C(F)(F)F)nc1)N[C@H]1CCCN(c2ccc(C3(CN4CCCC4)CCCC3)cc2)C1=O [Example 58, (S)-1-(2-oxo-1-(4-(1-(pyrrolidin-1-ylmethyl)cyclopentyl)phenyl)piperidin-3-yl)-3-(6-(trifluoromethyl)pyridin-3-yl)urea] |
| 700 | 17 | O=C(Nc1ccc(Cl)cn1)N[C@@H]1CCCN(c2ccc(C3(CN4CCOCC4)CC3)cc2)C1=O [Example 53, (R)-1-(5-chloropyridin-2-yl)-3-(1-(4-(1-(morpholinomethyl)cyclopropyl)phenyl)-2-oxopiperidin-3-yl)urea] |

Reference: patent US11124494B2, “Aryl heterocyclic piperidinone formyl peptide 2 receptor and formyl peptide 1 receptor agonists” (Bristol-Myers Squibb Company, priority 2017, dated 2021)
